Test results: ChEMBL document CHEMBL5465560, “Selectivity Literature for EUbOPEN Chemogenomic Library” (2024)
Values belong to the compound of their own block, whether it stands above or below them.

Tests used:
[1] = molecular target: T1, Casein kinase I isoform alpha-like (Homo sapiens) (UniProt Q8N752); test: Selectivity interaction (Ambit KINOMEscan and KiNATiv profiling in Jurkat cells) EUB0000090b CSNK1A1L; assay type: cell-based; settings: at 1 µM
T1 sequence (whole entry): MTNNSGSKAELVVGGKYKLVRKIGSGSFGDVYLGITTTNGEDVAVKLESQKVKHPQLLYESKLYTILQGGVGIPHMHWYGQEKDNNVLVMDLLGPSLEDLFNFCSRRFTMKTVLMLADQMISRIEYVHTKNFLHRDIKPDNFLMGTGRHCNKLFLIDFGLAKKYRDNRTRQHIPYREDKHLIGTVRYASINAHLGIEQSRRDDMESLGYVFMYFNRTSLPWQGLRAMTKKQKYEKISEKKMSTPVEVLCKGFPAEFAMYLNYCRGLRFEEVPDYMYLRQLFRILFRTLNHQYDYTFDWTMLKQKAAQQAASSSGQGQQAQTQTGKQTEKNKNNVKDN

[2] = molecular target: T2, Serine/threonine-protein kinase D2 (Homo sapiens) (UniProt Q9BZL6); test: Selectivity interaction (Kinase panel (Invitrogen)) EUB0000639a PRKD2; settings: at 200 nM
T2 sequence (whole entry): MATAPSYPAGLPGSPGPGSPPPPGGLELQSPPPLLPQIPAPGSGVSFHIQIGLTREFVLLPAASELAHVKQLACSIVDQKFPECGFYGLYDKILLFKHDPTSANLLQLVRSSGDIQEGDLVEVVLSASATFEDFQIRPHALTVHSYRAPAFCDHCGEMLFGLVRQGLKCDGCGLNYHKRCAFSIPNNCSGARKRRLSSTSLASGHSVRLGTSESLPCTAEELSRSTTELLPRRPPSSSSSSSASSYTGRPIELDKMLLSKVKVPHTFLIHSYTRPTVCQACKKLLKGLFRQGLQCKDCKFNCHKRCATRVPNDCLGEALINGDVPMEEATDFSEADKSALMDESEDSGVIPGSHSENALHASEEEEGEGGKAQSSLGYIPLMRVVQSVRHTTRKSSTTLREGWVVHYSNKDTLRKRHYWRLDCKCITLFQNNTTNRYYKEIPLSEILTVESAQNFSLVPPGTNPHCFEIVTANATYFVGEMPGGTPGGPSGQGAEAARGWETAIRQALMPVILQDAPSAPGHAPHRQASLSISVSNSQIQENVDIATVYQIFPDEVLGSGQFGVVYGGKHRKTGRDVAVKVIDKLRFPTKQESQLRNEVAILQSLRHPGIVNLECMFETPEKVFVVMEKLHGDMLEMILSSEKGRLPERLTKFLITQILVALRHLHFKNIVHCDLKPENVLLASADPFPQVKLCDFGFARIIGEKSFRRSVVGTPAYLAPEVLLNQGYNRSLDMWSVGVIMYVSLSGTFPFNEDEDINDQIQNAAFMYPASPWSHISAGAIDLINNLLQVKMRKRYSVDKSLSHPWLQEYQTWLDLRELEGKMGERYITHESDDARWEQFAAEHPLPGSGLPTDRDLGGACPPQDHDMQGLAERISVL

[3] = molecular target: T3, Mitogen-activated protein kinase 13 (Homo sapiens) (UniProt O15264); test: Selectivity interaction (Kinase panel (Z-LYTE Assay)) EUB0001632a MAPK13; settings: at 10 µM
T3 sequence (whole entry): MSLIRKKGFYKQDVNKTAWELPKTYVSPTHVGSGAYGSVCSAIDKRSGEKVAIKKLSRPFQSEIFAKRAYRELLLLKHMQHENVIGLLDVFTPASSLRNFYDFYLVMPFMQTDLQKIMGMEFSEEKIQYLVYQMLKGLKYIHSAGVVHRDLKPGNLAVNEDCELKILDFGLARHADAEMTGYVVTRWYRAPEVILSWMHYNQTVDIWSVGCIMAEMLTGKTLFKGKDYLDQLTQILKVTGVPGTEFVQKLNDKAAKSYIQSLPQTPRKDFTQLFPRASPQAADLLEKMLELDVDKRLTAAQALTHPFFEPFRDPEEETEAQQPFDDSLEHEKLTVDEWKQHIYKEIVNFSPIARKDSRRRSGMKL

[4] = molecular target: Phosphatidylinositol 4-phosphate 5-kinase type-1 gamma (Homo sapiens) (UniProt O60331); test: Selectivity interaction (KinomeScan (DiscoverX)) EUB0000229b PIP5K1C; settings: at 10 µM
Sequence of Phosphatidylinositol 4-phosphate 5-kinase type-1 gamma (Homo sapiens) (O60331 whole entry): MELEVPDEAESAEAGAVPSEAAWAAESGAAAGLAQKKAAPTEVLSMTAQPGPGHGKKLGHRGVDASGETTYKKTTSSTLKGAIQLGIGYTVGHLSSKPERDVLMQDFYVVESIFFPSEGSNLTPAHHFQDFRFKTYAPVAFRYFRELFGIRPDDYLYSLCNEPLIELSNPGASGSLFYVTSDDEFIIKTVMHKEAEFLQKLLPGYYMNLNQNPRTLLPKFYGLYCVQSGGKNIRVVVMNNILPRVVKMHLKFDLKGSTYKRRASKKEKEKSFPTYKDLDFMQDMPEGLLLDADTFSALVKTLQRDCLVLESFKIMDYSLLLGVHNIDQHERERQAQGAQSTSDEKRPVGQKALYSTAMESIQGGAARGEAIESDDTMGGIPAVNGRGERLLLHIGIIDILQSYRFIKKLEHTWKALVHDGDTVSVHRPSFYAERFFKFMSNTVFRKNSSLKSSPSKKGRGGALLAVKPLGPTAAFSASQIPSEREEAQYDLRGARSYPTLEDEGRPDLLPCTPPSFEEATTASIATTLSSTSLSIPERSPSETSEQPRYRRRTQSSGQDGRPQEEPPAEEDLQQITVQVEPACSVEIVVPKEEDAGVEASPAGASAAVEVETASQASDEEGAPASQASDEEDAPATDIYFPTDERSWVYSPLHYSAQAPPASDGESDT

[5] = molecular target: Casein kinase II subunit alpha (Homo sapiens, UniProt P68400); test: Selectivity interaction (KinomeScan (DiscoverX)) EUB0001079a CSNK2A1; settings: at 1 µM
Sequence of Casein kinase II subunit alpha (P68400 whole entry, looked up): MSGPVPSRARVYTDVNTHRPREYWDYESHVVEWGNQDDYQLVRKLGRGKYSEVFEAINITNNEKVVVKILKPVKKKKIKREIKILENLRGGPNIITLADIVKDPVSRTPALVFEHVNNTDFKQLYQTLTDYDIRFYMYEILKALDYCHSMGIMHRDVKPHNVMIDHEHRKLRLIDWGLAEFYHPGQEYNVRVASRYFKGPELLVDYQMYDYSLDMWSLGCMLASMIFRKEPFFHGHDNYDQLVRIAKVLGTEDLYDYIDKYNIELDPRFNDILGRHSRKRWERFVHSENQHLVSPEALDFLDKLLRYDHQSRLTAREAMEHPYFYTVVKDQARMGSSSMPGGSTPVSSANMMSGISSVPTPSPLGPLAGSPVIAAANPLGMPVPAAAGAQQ

[6] = molecular target: Tyrosine-protein kinase Lyn (Homo sapiens, UniProt P07948); test: Selectivity interaction (KinomeScan (DiscoverX)) EUB0000655a LYN; settings: at 10 µM
Sequence of Tyrosine-protein kinase Lyn (P07948 2-512 limits assumed): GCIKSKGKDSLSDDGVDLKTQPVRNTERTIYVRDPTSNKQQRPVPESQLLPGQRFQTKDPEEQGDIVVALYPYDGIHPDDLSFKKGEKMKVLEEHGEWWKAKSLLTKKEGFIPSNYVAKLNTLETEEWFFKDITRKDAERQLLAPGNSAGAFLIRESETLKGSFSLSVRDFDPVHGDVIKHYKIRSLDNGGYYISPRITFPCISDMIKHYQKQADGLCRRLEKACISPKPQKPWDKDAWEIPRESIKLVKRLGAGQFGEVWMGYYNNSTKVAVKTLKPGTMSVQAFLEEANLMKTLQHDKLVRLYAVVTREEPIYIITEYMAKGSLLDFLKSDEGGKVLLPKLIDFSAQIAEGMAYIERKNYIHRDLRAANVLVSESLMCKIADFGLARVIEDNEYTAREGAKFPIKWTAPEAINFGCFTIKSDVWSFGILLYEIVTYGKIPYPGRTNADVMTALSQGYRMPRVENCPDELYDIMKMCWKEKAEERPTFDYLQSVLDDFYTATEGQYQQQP

[7] = molecular target: Casein kinase II subunit alpha' (Homo sapiens) (UniProt P19784); test: Selectivity interaction (KinomeScan (DiscoverX)) EUB0000618a CSNK2A2; settings: at 10 µM
Sequence of Casein kinase II subunit alpha' (Homo sapiens) (P19784 whole entry, looked up): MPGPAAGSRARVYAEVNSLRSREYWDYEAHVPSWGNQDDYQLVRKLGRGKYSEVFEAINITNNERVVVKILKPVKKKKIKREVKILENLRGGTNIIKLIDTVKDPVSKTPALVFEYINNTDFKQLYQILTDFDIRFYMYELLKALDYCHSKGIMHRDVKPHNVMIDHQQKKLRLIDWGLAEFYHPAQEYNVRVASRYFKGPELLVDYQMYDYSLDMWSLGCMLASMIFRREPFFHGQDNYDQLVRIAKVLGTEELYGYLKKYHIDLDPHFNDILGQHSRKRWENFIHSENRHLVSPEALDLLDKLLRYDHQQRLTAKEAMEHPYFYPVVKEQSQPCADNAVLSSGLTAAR

[8] = molecular target: NT-3 growth factor receptor (Homo sapiens, UniProt Q16288); test: Selectivity interaction (SelectScreen profiling (Invitrogen)) EUB0000607a NTRK3; settings: at 2 µM
Sequence of NT-3 growth factor receptor (Q16288 32-839 limits assumed): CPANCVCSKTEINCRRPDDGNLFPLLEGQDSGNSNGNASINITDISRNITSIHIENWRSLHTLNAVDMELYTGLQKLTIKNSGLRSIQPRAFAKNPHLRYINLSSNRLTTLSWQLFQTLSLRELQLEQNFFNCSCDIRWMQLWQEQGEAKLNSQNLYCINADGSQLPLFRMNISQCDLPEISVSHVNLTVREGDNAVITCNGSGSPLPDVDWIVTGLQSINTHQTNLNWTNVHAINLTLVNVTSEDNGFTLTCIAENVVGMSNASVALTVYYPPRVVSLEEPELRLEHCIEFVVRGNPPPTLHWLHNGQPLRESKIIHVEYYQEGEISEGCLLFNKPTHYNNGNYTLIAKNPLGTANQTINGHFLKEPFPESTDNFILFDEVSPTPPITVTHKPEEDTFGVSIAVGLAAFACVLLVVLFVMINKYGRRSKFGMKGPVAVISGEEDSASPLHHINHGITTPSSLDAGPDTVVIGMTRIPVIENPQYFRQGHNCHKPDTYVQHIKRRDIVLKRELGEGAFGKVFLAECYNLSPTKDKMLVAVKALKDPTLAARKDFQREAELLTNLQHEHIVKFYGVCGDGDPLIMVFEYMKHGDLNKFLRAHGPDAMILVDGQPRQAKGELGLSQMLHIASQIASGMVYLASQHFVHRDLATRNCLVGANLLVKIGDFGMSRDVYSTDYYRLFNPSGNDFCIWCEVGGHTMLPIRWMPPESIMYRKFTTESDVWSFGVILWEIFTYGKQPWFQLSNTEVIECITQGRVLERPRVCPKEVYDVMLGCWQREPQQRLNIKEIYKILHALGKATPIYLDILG

[9] = molecular target: T4, Serine/threonine-protein kinase BRSK1 (Homo sapiens) (UniProt Q8TDC3); test: Selectivity interaction (KinomeScan (DiscoverX)) EUB0000607a BRSK1; settings: at 10 µM
T4 sequence (whole entry): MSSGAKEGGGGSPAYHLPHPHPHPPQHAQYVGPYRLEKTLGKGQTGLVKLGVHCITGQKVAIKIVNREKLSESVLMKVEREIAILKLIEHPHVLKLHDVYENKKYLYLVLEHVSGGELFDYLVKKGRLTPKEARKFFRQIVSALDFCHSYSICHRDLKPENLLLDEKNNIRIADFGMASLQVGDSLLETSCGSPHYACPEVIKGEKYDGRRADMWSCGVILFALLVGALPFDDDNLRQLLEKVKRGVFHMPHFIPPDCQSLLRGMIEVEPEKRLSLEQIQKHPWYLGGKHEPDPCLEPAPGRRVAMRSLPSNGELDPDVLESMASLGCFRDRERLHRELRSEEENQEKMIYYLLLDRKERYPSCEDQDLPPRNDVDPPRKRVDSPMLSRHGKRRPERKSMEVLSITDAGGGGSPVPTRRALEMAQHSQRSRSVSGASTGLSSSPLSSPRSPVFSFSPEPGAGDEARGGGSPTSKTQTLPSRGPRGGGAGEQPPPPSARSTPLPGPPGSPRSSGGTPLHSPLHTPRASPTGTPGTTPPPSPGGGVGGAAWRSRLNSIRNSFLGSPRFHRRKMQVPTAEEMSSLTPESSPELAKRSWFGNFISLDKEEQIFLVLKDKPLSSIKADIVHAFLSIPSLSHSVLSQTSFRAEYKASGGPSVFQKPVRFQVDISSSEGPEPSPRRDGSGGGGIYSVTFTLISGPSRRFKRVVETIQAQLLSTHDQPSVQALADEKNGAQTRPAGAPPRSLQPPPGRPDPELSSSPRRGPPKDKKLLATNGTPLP

SMILES: CN(C)C/C=C/C(=O)Nc1ccc(C(=O)N2CCCC(Nc3ncc(Cl)c(-c4c[nH]c5ccccc45)n3)C2)cc1 (centres undefined)
% of control [1]: 65%

% of inhibition [2]: 5.6%
SMILES: CC[C@@H]1[C@H](F)C(=O)N[C@@H]1COc1nccc2cc(C(N)=O)c(OC)cc12 [ZIMLOVISERTIB]

% of control [3]: 3.12%
SMILES: Cn1cc(-n2cnc3c(NCc4nc5cc(Cl)c(Cl)cc5[nH]4)nc(N4CCOCC4)nc32)cn1

SMILES: COc1cc(N(C)c2ccnc3ccc(C(F)(F)F)cc23)cc(OC)c1OC
% binding [4]: 53%

SMILES: Nc1cnc(N2CCc3cc(S(=O)(=O)Nc4c(F)cc(Cl)cc4F)cc(N4CCCC4=O)c32)nc1 [TP-020n]
% of control [5]: 100%

SMILES: CN(C)CCOc1ccc(-c2nc(-c3ccncc3)c(-c3ccc4c(c3)CC/C4=N\O)[nH]2)cc1
% of control [6]: 86%

SMILES: O[C@H]1CC[C@H](Nc2ncc3nc(Nc4c(F)cc(F)cc4F)n([C@H]4CCOC4)c3n2)CC1
% of control [7]: 96%

SMILES: CNC(=O)Nc1ccc(-c2nc(N3CC4CCC(C3)O4)c3cnn(C4CCC5(CC4)OCCO5)c3n2)cc1
% of inhibition [8]: 5% | % of control [9]: 100%
